Laboratory results taken from paper PMC5177629, “Selective Estrogen Receptor Modulators: Cannabinoid Receptor Inverse Agonists with Differential CB1 and CB2 Selectivity” (Frontiers in Pharmacology, 2016).
Where two headings read alike, the source gives them in different places.

How the values were obtained:
[1] = molecular target: T1, human cannabinoid type-2 receptors (hCB2) (Homo sapiens, UniProt P34972); assay: Competition receptor binding with [3H]CP-55,940, CHO-hCB2 membranes; conditions: for displacement of [3H]CP-55,940 from hCB2Rs: single 1 μM concentration, 0.2 nM [3H]CP-55,940, CHO-hCB2
T1 construct: expressed in transfected cells; host or cells: CHO cells (CHO-hCB2), membranes or intact cells
T1 sequence (P34972 whole entry): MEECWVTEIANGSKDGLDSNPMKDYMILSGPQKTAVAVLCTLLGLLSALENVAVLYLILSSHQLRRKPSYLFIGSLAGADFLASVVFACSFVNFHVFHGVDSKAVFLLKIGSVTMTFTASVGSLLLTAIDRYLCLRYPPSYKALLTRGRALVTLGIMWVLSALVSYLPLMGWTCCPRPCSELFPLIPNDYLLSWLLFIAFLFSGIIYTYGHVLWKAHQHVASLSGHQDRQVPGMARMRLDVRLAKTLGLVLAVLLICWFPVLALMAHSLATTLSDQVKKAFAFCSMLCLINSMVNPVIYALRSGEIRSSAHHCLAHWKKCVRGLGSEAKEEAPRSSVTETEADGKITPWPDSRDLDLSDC
Description: Membrane homogenates were prepared for competition receptor binding and [^35S]GTPγS binding studies by using pellets previously frozen of CHO-hCB1 or CHO-hCB2 cells as described in ([Franks et al., 2014]). In short, pellets were thawed on ice, combined in a 40 ml glass Dounce homogenizer and homogenized in 20 ml of cold buffer (50 mM HEPES at pH 7.4, 3 mM MgCl2, and 1 mM EGTA) using 10 strokes. Homogenates were then centrifuged at 40,000 × g for 10 min at 4°C. After discarding the supernatant, pellets were homogenized and centrifuged twice more. Final pellets were re-suspended in ice-cold 50 mM HEPES, pH 7.4, aliquoted and stored at -80°C for future use. Protein concentration was determined the same day, prior to freezing, using BCA^TM Protein Assay (Thermo Fisher Scientific, Waltham, MA, USA).
The final volume of each sample was 1 ml, containing 50 mM Tris-HCl buffer (pH 7.4), 0.05% bovine serum albumin, 5 mM MgCl2, increasing concentrations of non-radioactive competing SERM ligands, and either 100 μg of CHO-hCB1 or 50 μg of CHO-hCB2 membrane homogenates. Non-specific binding was defined by radioactivity remaining in the presence of 1 μM of the non-radioactive CB1/CB2 agonist WIN-55,212-2. Each sample condition was performed in triplicate and allowed to reach equilibrium at room temperature for 90 min. Reactions were terminated by rapid vacuum filtration through Whatman GF/B glass fiber filters (Brandel, Inc.), followed by four 4 ml washes of ice-cold filtration buffer (50 mM Tris at pH 7.4 and 0.05% BSA). Filter punches of individual samples were placed in scintillation vials containing 4 mls of ScintiverseTM BD cocktail scintillation fluid (Fisher Scientific, Pittsburg, PA, USA). Final counts were determined using liquid scintillation spectrophotometry (Tri Carb 2100 TR Liquid Scintillation Analyzer, Packard Instrument Company, Meriden, CT, USA) after overnight incubation.
(§1) Statistical analyses were conducted by utilizing GraphPad Prism v6.0g (GraphPad Software, Inc.; San Diego, CA, USA). IC50 values from competition receptor binding curves were derived by non-linear regression. Experimental IC50 values were converted to Ki values (a measure of receptor affinity) by using the Cheng–Prusoff equation ([Cheng and Prusoff, 1973]). Non-linear regression analysis of concentration-effect curves was also used to determine potency (ED50 or IC50) and efficacy (Emax or Imax) for modulation of GTPγS and adenylyl cyclase activity, respectively. All IC50, EC50, Ki, and Kb values were converted to pEC50, pIC50, pKi, and pKb values in order to permit use of parametric statistical analyses. For all experiments comparing three or more values, an one-way ANOVA was employed, followed by Dunnett’s or Tukey’s post hoc tests. For comparisons of two values, an unpaired t-test was utilized. To determine significant radioligand displacement or modulation of G-protein activity compared to basal levels, a one-sample t-test was employed.
For initial comparison of potential SERM binding to CBRs, 14 commercially available compounds from 5 structurally distinct classes (Figure 1) were subjected to a radioligand binding screen (Figure 2).

[2] = molecular target: T1, human cannabinoid type-2 receptors (hCB2); assay: Adenylyl cyclase assay (forskolin-stimulated cAMP), intact CHO-hCB2 cells; format: cell-based; conditions: for Emax: elevation of cAMP, read-out: EMAX, Intracellular [3H]cAMP; for EC50: increase of cAMP, 10 μM forskolin, read-out: EC50, Intracellular [3H]cAMP
Description: (§2) Briefly, cells cultured between passages 4 and 15 were seeded into 24-well plates at a concentration of 6.5 million cells per plate and incubated overnight in a humidified incubator maintained at 37°C and 5% CO2. Growth media was removed the next day and replaced with media containing […] [^3H]adenine, 0.9g/L NaCl, and 0.5 mM isobutyl-methyl-xanthine (IBMX) for 2–3 h. Radioactive media was then removed and each well treated with 0.5 ml of varying concentrations of SERM compounds in a Krebs-Ringer-HEPES solution (10 mM HEPES, 110 mM NaCl, 25 mM Glucose, 55 mM Sucrose, 5 mM KCl, 1 mM MgCl2, 1.8 mM CaCl2, pH 7.4) containing 0.5 mM IBMX and 10 μM forskolin. Plates were then floated in a 37°C water bath for 15 min before reactions were terminated by addition of 50 μL of 2.2 N HCl to each well.
as §1, with “Experimental IC50 values were converted to Ki values (a measure of receptor affinity) by using the Cheng–Prusoff equation ([Cheng and Prusoff, 1973]).” left out
To provide a second measure of intrinsic activity, the ability of SERMs to modulate intracellular levels of cAMP in intact cells was examined (Figure 6). CBRs couple to Gi/Go-proteins, and thus cannabinoid agonists inhibit activity of the downstream intracellular effector adenylyl cyclase, reducing intracellular cAMP levels.

[3] = molecular target: T1, human cannabinoid type-2 receptors (hCB2); assay: Antagonism of CP-55,940 inhibition of adenylyl cyclase, intact CHO-hCB2 cells; format: cell-based; conditions: for IMAX of CP-55,940 after pre-incubation with the drug / type of antagonism at hCB2Rs: CHO-hCB2 cells; for IMAX of CP-55,940 after pre-incubation with the drug: pre-incubation 30 min: OSP, NAF 10 μM, RAL, BAZ 2 μM, AM-630 1 μM; for type of antagonism at hCB2Rs: CP-55,940 inhibition of adenylyl cyclase
Description: as §2
Reactions were then terminated by adding 50 μL of 2.2 N HCl to each well. [^3H]cAMP was isolated using alumina column chromatography and radioactivity quantified following addition of 10 mls of scintiverseTM BD cocktail scintillation fluid (Fisher Scientific, Pittsburg, PA, USA) by liquid scintillation spectrophotometry (Tri Carb 2100 TR Liquid Scintillation Analyzer, Packard Instrument Company, Meriden, CT, USA).
as §1, with “Experimental IC50 values were converted to Ki values (a measure of receptor affinity) by using the Cheng–Prusoff equation ([Cheng and Prusoff, 1973]).” left out
IC50 and Kb values were converted to pIC50 and pKb values (pIC50 = -Log[IC50] or pKb = -Log[Kb], respectively) to allow use of parametric statistics for comparison.

[4] = Ki, [3H]CP-55,940 Binding CHO-hCB2, CHO-hCB2 membranes, Cheng-Prusoff from IC50

Ki ([1]; CHO-hCB2 membranes, read-out: affinity for hCB2Rs (Ki))	Kb ([3]; intact CHO-hCB2 cells, mean ± SEM, read-out: pKb, CHO-hCB2 (converted))	SMILES	Ki [1, 4]	Ki ([1]; pKi, [3H]CP-55,940 Binding CHO-hCB2, CHO-hCB2 membranes, mean ± SEM)	displacement of [3H]CP-55,940 from hCB2Rs [1]	Emax [2]	EC50 [2]	IMAX of CP-55,940 after pre-incubation with the drug [3]	type of antagonism at hCB2Rs [3]	Kb ([3]; read-out: Kb (antagonist dissociation constant), CHO-hCB2)	Ki ([1]; affinity for hCB2Rs (Ki), CHO-hCB2 membranes)	Kb [3]	Ki ([1]; pKi, [3H]CP-55,940 Binding CHO-hCB2)
–	–	O=C(c1ccc(OCCN2CCCCC2)cc1)c1c(-c2ccc(O)cc2)sc2cc(O)ccc12 [RAL, raloxifene]	~200 nM	240 nM	80%	234 ± 21%	873 nM	33.0 ± 1.3%	surmountable antagonists	66.5 nM	–	–	–
1000 to 4000 nM	337 nM	COc1ccc2c(c1)CCC(c1ccccc1)=C2c1ccc(OCCN2CCCC2)cc1 [NAF, nafoxidine]	1300 nM	–	–	–	–	32.3 ± 2.3%	surmountable antagonists	–	–	–	–
–	–	OCCOc1ccc(/C(=C(/CCCl)c2ccccc2)c2ccccc2)cc1 [OSP, ospemifene]	3720 nM	–	–	279 ± 17%	1440 nM	31.7 ± 2.3%	surmountable antagonists	–	1000 to 4000 nM	1260 nM	–
–	–	Cc1c(-c2ccc(O)cc2)n(Cc2ccc(OCCN3CCCCCC3)cc2)c2ccc(O)cc12 [BAZ, bazedoxifene]	–	–	73%	352 ± 14%	1980 nM	28.8 ± 3.0^∗∗ %	insurmountable antagonist	–	–	–	254 nM
